Results: patent US10280146B2, “Pyrimidone compounds used as Lp-PLA2 inhibitors and pharmaceutical compositions thereof” (Shanghai Institute of Materia Medica, Chinese Academy of …, priority 2014, dated 2019)

Key:
[1] = molecular target: T1, Lp-PLA2 (rabbit serum as the source of enzyme) (Oryctolagus cuniculus, UniProt G1SE06); test: In vitro inhibitory activity on Lp-PLA2, rabbit serum as the source of enzyme (2-thio-PAF/DTNB); format: biochemical; conditions: read-out: Inhibitory ratio, % on Lp-PLA2 (rabbit serum as the source of enzyme); for inhibition at 0.01 µM: 10 nM compound, — = no inhibitory activity; for inhibition at 0.1 µM: 100 nM compound; for inhibition at 1 µM: 1 μM compound
T1 construct: Rabbit Serum as the Source of Enzyme; from tissue; host or cells: rabbit serum
T1 sequence (G1SE06 22-423): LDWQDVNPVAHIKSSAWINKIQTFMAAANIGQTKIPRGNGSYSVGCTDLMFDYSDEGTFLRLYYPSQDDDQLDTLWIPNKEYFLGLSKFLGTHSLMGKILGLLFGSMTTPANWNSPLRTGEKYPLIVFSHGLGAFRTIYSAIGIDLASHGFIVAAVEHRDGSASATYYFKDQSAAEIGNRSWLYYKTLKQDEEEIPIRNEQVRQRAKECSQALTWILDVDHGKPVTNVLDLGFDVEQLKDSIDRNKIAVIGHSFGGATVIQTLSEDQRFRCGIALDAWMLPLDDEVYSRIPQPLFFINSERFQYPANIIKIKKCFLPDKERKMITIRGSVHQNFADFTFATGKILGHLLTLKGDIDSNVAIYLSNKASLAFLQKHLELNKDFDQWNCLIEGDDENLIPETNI
Procedure: (§1) 0.1M Tris-HCl, 1 mM EGTA, PH 7.2
(§2) Anhydrous ethanol was used as solvent to make a 25 mg/ml mother liquor. The solution was aliquoted, stored at −80° C. and diluted 900 times before use (about 50 μM of concentration)
(§3) 3) DTNB (5,5′-dithio-bis-(2-nitrobenzoic acid), Sigma, Lot D8130)
(§4) The solution was prepared just before use.
(§5) 4) Compound was dissolved in DMSO to a suitable concentration.
(§6) Lp-PLA2 activity was determined by using 2-thio-PAF as substrate. The thiol group produced upon the hydrolysis of 2-thio-PAF can react with DTNB to generate a yellow substance. The optical density at 414 nm can be detected to reflect Lp-PLA2 activity.
1.1 Determination of the Inhibitory Activity of the Compounds on Lp-PLA2 (Rabbit Serum as the Source of Enzyme) (In Vitro)
1) The corresponding reagents were added according to Table 1 and mixed uniformly by shaking.
(§7) 2) 10 μL of DTNB was added to each well.
(§8) 3) 150 μL of 2-thio-PAF was added to each well and shaken for 15 s on a microplate reader to mix the liquid in the well uniformly.

[2] = molecular target: T2, Lp-PLA2 (human recombinant enzyme as the source of enzyme) (Homo sapiens, UniProt Q13093); test: In vitro inhibitory activity on Lp-PLA2, human recombinant enzyme (2-thio-PAF/DTNB); format: biochemical; conditions: read-out: inhibitory ratio, % on Lp-PLA2 (human recombinant enzyme as the source of enzyme); for inhibition at 0.01 µM: 10 nM compound; for inhibition at 0.1 µM: 100 nM compound
T2 sequence (Q13093 22-441): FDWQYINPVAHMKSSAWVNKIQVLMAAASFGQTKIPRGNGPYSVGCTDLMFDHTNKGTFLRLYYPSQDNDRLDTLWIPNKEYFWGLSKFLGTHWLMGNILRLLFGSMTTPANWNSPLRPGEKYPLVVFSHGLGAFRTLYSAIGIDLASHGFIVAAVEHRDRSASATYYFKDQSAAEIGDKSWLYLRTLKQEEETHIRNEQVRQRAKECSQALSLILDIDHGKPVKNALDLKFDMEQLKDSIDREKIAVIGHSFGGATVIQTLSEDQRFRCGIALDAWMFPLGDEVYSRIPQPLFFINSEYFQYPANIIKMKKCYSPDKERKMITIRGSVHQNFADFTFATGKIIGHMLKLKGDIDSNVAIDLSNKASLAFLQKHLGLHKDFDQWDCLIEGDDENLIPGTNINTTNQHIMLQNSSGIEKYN
Procedure: as §1, §2, §3, §4, §5, §6
1.2 Determination of the Inhibitory Activity of the Compounds on Lp-PLA2 (Human Recombinant Enzyme as the Source of Enzyme) (In Vitro)
1) The corresponding reagents were added according to Table 3 and mixed uniformly by shaking.
as §7, §8

[3] = test system: Lp-PLA2 (rat serum as the source of enzyme); test: In vitro inhibitory activity on Lp-PLA2, rat serum as the source of enzyme (2-thio-PAF/DTNB); format: biochemical; set-up: key: “—” indicates no inhibitory activity
Procedure: as §1, §2, §3, §4, §5, §6
1.3 Determination of the Inhibitory Activity of the Compounds on Lp-PLA2 (Rat Serum as the Source of Enzyme (In Vitro)
1) The corresponding reagents were added according to Table 5 and mixed uniformly by shaking.
as §7, §8

[4] = test system: spontaneous type 2 diabetes ZDF rats; test: Long-term administration in spontaneous type 2 diabetes ZDF rats (blood glucose and other biochemical indexes); format: in vivo, rat
Source text: Positive control: metformin, produced by China-US Shanghai Squibb Pharmaceutical Co., Ltd.; dissolved in ultra-pure water.
Varieties: ZDF rats, ZL rats; Grade: SPF grade; Age: 56-62 days; Gender: Male; Source: Beijing Weitong Lihua Experimental Animal Co., Ltd.
The kits for total cholesterol (TC), triglyceride (TG), high density lipoprotein cholesterol (HDL-C), low density lipoprotein cholesterol (LDL-C), blood glucose (GLU), aspartate transferase (AST), alanine aminotransferase (ALT), alkaline phosphatase (ALP), urea (BUN), creatinine (CREA) and the like were purchased from Shanghai Shenneng Desai Diagnostic Technology Co., Ltd. The reagents for glycosylated hemoglobin (HbAlc) assay was purchased from Trinity Biotech Corporation. Insulin ELISA Assay Kit was purchased from BertinPharma Corporation. Urine microalbumin (mALB) and other ELISA kits were purchased from Nanjing Jiancheng Bioengineering Institute.
Two ZDF rat groups were orally administered with the compound of example 11 and metformin, respectively. […] The dose of metformin was 300 mg/kg/day. Both were administered for a period of 6 weeks.
Thirty male ZDF rats (56˜62 days old) were fed with Purina #5008 feed (purchased from Nongbiao Purina Feed Co., Ltd.) and the other 6 ZL rats were fed with normal diet as normal control. After fed for 2 weeks, the empty body weights of the fasting rats (fasting for 10 h, free to drink water) were weighed. 0.3 mL blood was collected through tail vein and placed in EDTA anticoagulant tube for the determination of glycosylated hemoglobin (HbAlc). Another 0.5 mL blood was collected and centrifugated at 3000 rpm for 10 min to separate serum which then was determined by automatic biochemical analyzer Model 7020. The serum was separated and then blood glucose and blood lipid (GLU, TC, TG) and hepatorenal function (ALT, AST, ALP, BUN, CREA) were determined. The ZDF rats with blood glucose far from the mean value or having other abnormal indexes were removed and 18 ZDF rats with GLU close to the mean value were selected.
Rats in each group were given the corresponding drug or solvent by gavage through oral once a day in the morning for 6 continuous weeks. Another 6 ZL rats were taken as normal control group.
Every 2 weeks the rats were fasted but allowed free drinking for 10 h, the empty body weight was weighed and 0.5 mL blood was collected through the tail vein to determine the blood glucose levels. The levels of insulin, glycosylated hemoglobin and triglyceride were measured at the 4th week of administration and at the end of the administration. The levels of low density lipoprotein and high density lipoprotein were measured at the 6th week of administration. The urine samples were collected once before the end of the administration and 24 h (11:00 am to 11:00 am the next day) urine samples were collected to detect urinary albumin content in urine.
Statistical analysis was performed with EXCEL 2007 software.

[5] = test system: STZ-induced diabetic rats; test: Retinal thickness of STZ-induced diabetic rats, long-term administration; format: in vivo, rat; conditions: 25 mg/kg/day oral, 4 weeks
Source text: Test compound: […] Positive control: Darapladib, dissolved in ultrapure water. […] All SD rats were preconditioned for 3-5 days. […] The diabetic model was established when the blood glucose of the rats was more than 10 mmol/L. […] The rats were administrated once a day. […] The eyeballs of the rats were removed, frozen and sectioned and the thickness of each slice was 8 μm. The slice was stained with conventional hematoxylin/eosin and photographed with a 400-fold optical microscope (Eclipse 80i, Nikon). The thickness of the retina was analyzed using the software Image-Pro plus 6.0. Five points were selected in each photo. Statistical analysis was performed with the EXCEL 2007 software. […] The experiment results were evaluated by Student T test.

[6] = 10 nM compound, — = no inhibitory activity
[7] = oral 25 then 10 mg/kg/day, 4 weeks after the administration
[8] = oral 25 then 10 mg/kg/day, 6 weeks after the administration

In the case of `Cn1c(N2CCOCC2)cc(OCCc2cc(F)c(Oc3ccc(Cl)c(C(F)(F)F)c3)c(F)c2)nc1=O` [Example 5, 4-(4-(4-chloro-3-(trifluoromethyl)phenoxy)-3,5-difluorophenethyloxy)-1-methyl-6-morpholinopyrimidin-2(1H)-one], the inhibition at 0.01 µM [1] is reported as 49.2%, the inhibition at 0.1 µM [1] is reported as 93.8% and the inhibition at 1 µM [1] is reported as 97.3%. The inhibition at 0.01 µM [2] was about 90%, the inhibition at 0.1 µM [2] was 100% and the “inhibitory ratio, % on Lp-PLA2 (rat serum as the source of enzyme)” value (from here on “inhibitory ratio, % on Lp-PLA2”) [3, 6] was 18.21%. The “inhibitory ratio, % on Lp-PLA2” value ([3]; 100 nM compound) was 73.23%.
`CN(C)c1cc(OCc2cc(F)c(Oc3ccc(Cl)c(C(F)(F)F)c3)c(F)c2)nc(=O)n1C` [Example 11] was tested, and the “blood glucose level compared with the model control group” value ([4]; oral 25 mg/kg/day first 4 days then 10 mg/kg/day, 2 weeks, 4 weeks and 6 weeks after administration) was “significantly decreased”, the “insulin level compared with the model control group” value [4, 7] was “significantly increased” and the “triglyceride level compared with the model control group” value [4, 7] was “significantly decreased”. For the same compound, the “glycosylated hemoglobin levels compared to the model control group” value ([4]; oral 25 then 10 mg/kg/day, 4 weeks and 6 weeks after the administration) was “significantly reduced”, the “insulin level compared with the model control group” value ([4]; oral 25 then 10 mg/kg/day, 6 weeks) was “remarkably increased” and the “high-density lipoprotein level compared with the model control group” value [4, 8] was “no significant change”. For the same compound, the “level of low-density lipoprotein compared with the model control group” value [4, 8] was “significantly reduced”, the “urinary albumin levels in the urine compared with the model control group” value ([4]; oral 25 then 10 mg/kg/day, 24 h urine, 6 weeks after the administration) was “significantly reduced” and the “retinal thickness compared with the model control group” value [5] was “significantly decreased”.
`Cn1c(N2CCC(F)(F)C2)cc(OCc2cc(F)c(Oc3ccc(Cl)c(C(F)(F)F)c3)c(F)c2)nc1=O` [Example 16] gave an inhibition at 0.01 µM [1] of 13.2%, an inhibition at 0.1 µM [1] of 77.4% and an inhibition at 1 µM [1] of 96.4%. The inhibition at 0.01 µM [2] was 55.3%, the inhibition at 0.1 µM [2] was 92.4% and the “inhibitory ratio, % on Lp-PLA2” value [3, 6] was 6.84%. For the same compound, the “inhibitory ratio, % on Lp-PLA2” value ([3]; 100 nM compound) was 50.35%.
For `Cn1c(-c2ccccc2)cc(OCc2cc(F)c(Oc3ccc(Cl)c(C(F)(F)F)c3)c(F)c2)nc1=O` [Example 19, 4-((4-(4-chloro-3-(trifluoromethyl)phenoxy)-3,5-difluorobenzyl)oxy)-1-methyl-6-phenylpyrimidin-2(1H)-one], the inhibition at 0.1 µM [1] was 59.7%, the inhibition at 0.01 µM [2] was 53.6% and the inhibition at 0.1 µM [2] was 89.7%. The “inhibitory ratio, % on Lp-PLA2” value [3, 6] was “—” and the “inhibitory ratio, % on Lp-PLA2” value ([3]; 100 nM compound) was 18.06%.
`COc1ccc(-c2cc(OCc3cc(F)c(Oc4ccc(Cl)c(C(F)(F)F)c4)c(F)c3)nc(=O)n2C)cc1` [Example 20, 4-((4-(4-chloro-3-(trifluoromethyl)phenoxy)-3,5-difluorobenzyl)oxy)-6-(4-methoxyphenyl)-1-methylpyrimidin-2(1H)-one] was tested, and the inhibition at 0.1 µM [1] was 54.2%, the inhibition at 0.01 µM [2] was 46.9% and the inhibition at 0.1 µM [2] was 90.4%. The “inhibitory ratio, % on Lp-PLA2” value [3, 6] was “—” and the “inhibitory ratio, % on Lp-PLA2” value ([3]; 100 nM compound) was 43.27%.
With `Cn1c(N2CCOCC2)cc(OCc2cc(F)c(Oc3ccc(C(F)(F)F)nc3)c(F)c2)nc1=O` [Example 26] the inhibition at 0.1 µM [1] was 57.3% and the inhibition at 1 µM [1] was 93.5%.
In the case of `Cn1c(N2CCOCC2)cc(OCc2ccc(Oc3ccc(Cl)c(C(F)(F)F)c3)c(C#N)c2)nc1=O` [Example 27, 2-(4-chloro-3-(trifluoromethyl)phenoxy)-5-((1-methyl-6-morpholinyl-2-oxo-1,2-dihydropyrimidin-4-oxy)methyl)benzonitrile], the “retinal thickness compared with the model control group” value [5] is reported as “significantly decreased”.
In the case of `Cn1c(N2CCOCC2)cc(OCc2cc(F)c(Oc3ccnc(C(F)(F)F)c3)c(F)c2)nc1=O` [Example 29], the inhibition at 0.01 µM [1] is reported as 22.6%, the inhibition at 0.1 µM [1] is reported as 83.5% and the inhibition at 1 µM [1] is reported as 97.1%.
Compound `CCn1c(N2CCOCC2)cc(OCc2cc(F)c(Oc3ccc(Cl)c(C(F)(F)F)c3)c(F)c2)nc1=O` [Example 34, 4-(4-(4-chloro-3-(trifluoromethyl)phenoxy-3,5-difluorobenzyl)oxy)-1-ethyl-6-morpholinopyrimidin-2(1H)-one] has an inhibition at 0.1 µM [1] of 54.1%, an inhibition at 1 µM [1] of 95.6% and an inhibition at 0.01 µM [2] of 53.9%. For the same compound, the inhibition at 0.1 µM [2] was 95.6%.
`CCN(CC)CCN(Cc1ccc(-c2ccc(C(F)(F)F)cc2)cc1)C(=O)Cn1c(SCc2ccc(F)cc2)nc(=O)c2c1CCC2` [darapladib, reference compound] was tested, and the “retinal thickness compared with the model control group” value [5] was “significantly decreased”.
